Measurements from ChEMBL document CHEMBL1201862, “PubChem BioAssay data set” (2004).
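The compound was tested at five concentrations on cells cultured in 96-well plates, with a 48-hour exposure period. Abbreviation: GI50, concentration required for 50% inhibition of growth.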 The source made the active and inactive calls. No stated cut-off is given here; in the data, active = GI50 up to about 1.1 µM and inactive = higher.

How the values were obtained:
Test in all cases: growth of human tumour cells (NCI), 48 h
[1] = test system: MDA-N
[2] = test system: DU-145
[3] = test system: MDA-MB-435
[4] = test system: T47D
[5] = test system: Hs-578T
[6] = test system: BT-549
[7] = test system: RXF 631
[8] = test system: LXFL 529
[9] = test system: 786-0

Row | Compound | GI50 [1] | GI50 [2] | GI50 [3] | GI50 [4] | GI50 [5] | GI50 [6] | GI50 [7] | GI50 [8] | GI50 [9]
1 | CCP(=O)(CC)C(Cl)Cl | > 100 µM (inactive) | > 100 µM (inactive) | > 100 µM (inactive) | > 100 µM (inactive) | > 100 µM (inactive) |  |  |  | 
2 | COc1cc(CCCl)c(CC2=NCCc3cc(OC)c(OC)cc32)cc1OC | 70.1 µM (inactive) | > 100 µM (inactive) | 89.9 µM (inactive) | > 100 µM (inactive) | 14.9 µM (inactive) | > 100 µM (inactive) |  |  | 
3 | COc1cc(/C=C/C2=C(C#N)C(=O)OC2(C)C)ccc1O |  |  |  |  |  |  | 93.1 µM (inactive) |  | 
4 | NC(=O)C1(c2ccccc2)Nc2ccccc2S1 (configuration not stated) |  |  |  |  |  |  |  | > 100 µM (inactive) | 
5 | COP(=O)(OC)C(Cc1cn(C(C)=O)c2ccccc12)C(=O)O (configuration not stated) | > 100 µM (inactive) | > 100 µM (inactive) |  | > 100 µM (inactive) | > 100 µM (inactive) |  |  |  | 
6 | COC1C=CC(O)C(CO)O1 (configuration not stated) |  |  |  |  |  |  |  | > 100 µM (inactive) | 
7 | O=C1Cc2c(-c3ccccc3)cc(-c3cccc(Cl)c3)nc2-c2ccccc2N1 | 6.82 µM (inactive) | 2.61 µM (inactive) | 8.91 µM (inactive) | 2.05 µM (inactive) | 2.09 µM (inactive) | 6.61 µM (inactive) |  |  | 
8 | Nc1nn(CC(O)CO)c(=O)s1 (configuration not stated) |  |  |  |  |  |  | > 100 µM (inactive) | > 100 µM (inactive) | 
9 | O=c1cnn(C2OC(CO)C(O)C2O)c(=S)[nH]1 (configuration not stated) | > 100 µM (inactive) | 9.4 µM (inactive) | > 100 µM (inactive) | > 100 µM (inactive) | > 100 µM (inactive) | > 100 µM (inactive) | 14.3 µM (inactive) | 11.5 µM (inactive) | 
10 | CCSc1nc(N)c2c(-c3ccc(OC)c(OC)c3)c3c(nc2n1)CCCC3 | > 100 µM (inactive) | > 100 µM (inactive) | > 100 µM (inactive) | > 100 µM (inactive) | > 100 µM (inactive) | > 100 µM (inactive) |  |  | 
11 | COC(=O)C1=C(O)C(C(=O)OC)[C@]2(O)[C@@H](C(=O)OC)[C@H]1C[C@@H](c1ccccc1)[C@@H]2C(=O)OC (some centres not stated) | 5.01 µM (inactive) | 11.9 µM (inactive) | 7.71 µM (inactive) | 27.6 µM (inactive) | 17.2 µM (inactive) | 15.8 µM (inactive) |  |  | 
12 | O=Cc1cn(CCCCCCCCn2cc(C=O)c3ccccc32)c2ccccc12 | > 10 µM (inactive) | 8.05 µM (inactive) | > 10 µM (inactive) | 3.91 µM (inactive) | 6.49 µM (inactive) |  |  |  | 
13 | CCOC(=O)c1ccc(N[C@@H]2c3cc4c(cc3C(c3cc(OC)c(O)c(OC)c3)[C@H]3C(=O)OCC32)OCO4)cc1 (some centres not stated) |  | 0.258 µM (active) | 3.07 µM (inactive) |  |  | 1.64 µM (inactive) |  | 4.55 µM (inactive) | 
14 | CCCCOP1(=O)C=CC(Cl)=C(C)C1 (configuration not stated) |  |  |  |  |  |  | 29.1 µM (inactive) | 27.9 µM (inactive) | 22.3 µM (inactive)
15 | Nc1nnc(N)n1NC(=O)C(=O)Nc1ccc([N+](=O)[O-])cc1 |  |  |  |  |  |  | > 100 µM (inactive) |  | 
16 | COc1ccc(C2C(C(=O)O)=C(COC(C)=O)Oc3cc4c(cc32)OCO4)cc1 (configuration not stated) |  |  |  |  |  |  | > 100 µM (inactive) |  | 
17 | COc1ccc(Sc2ccccc2N)cc1 |  |  |  |  |  |  |  | 41 µM (inactive) | 
18 | COC(=O)C1=COC2OC3/C(=C\c4ccc(O)c(OC)c4)C(=O)OC34C=CC1C24 (configuration not stated) |  |  |  |  |  |  |  | 13.5 µM (inactive) | 
19 | CN(CCCCCl)P(=O)(OCC1=CC(=O)c2ccccc2C1=O)OC[C@H]1O[C@@H](n2cc(F)c(=O)[nH]c2=O)C[C@@H]1O (some centres not stated) | 0.753 µM (active) | 0.052 µM (active) | 0.684 µM (active) |  | < 0.01 µM (active) | 9.06 µM (inactive) |  |  | 
